Reference: paper PMC9150102 (Journal of Medicinal Chemistry, 2022)

Key:
SERCA2a [1] = target: T1, SERCA2a (Cavia porcellus, UniProt A0A286XFU8); experiment: SERCA2a ATPase activity, Ca2+ dependency in cardiac SR microsomes from healthy guinea pigs; assay type: biochemical, guinea pig; details: for SERCA2a KdCa reduced by / SERCA2a Vmax: 1 nM
T1 construct: from tissue; host or cells: guinea pig left ventricle, SR-enriched microsomes
Experimental: SERCA2a ATPase activity was assessed in SR preparations from healthy guinea pig hearts. Ca^2+ dependency of ATPase activity was measured, and kinetic parameters (KdCa and Vmax) were estimated at compound concentrations of 10 and 100 nM.
[…] […] Data are the mean ± SEM. *p < 0.05 (one-way RM ANOVA plus post hoc Tukey’s multiple comparisons or paired t-test).
Measurements were performed in cardiac SR microsomes (guinea pig) and in whole tissue homogenates (rat). Cardiac preparations included SERCA2a and PLN. To test for PLN involvement in the effect of compounds, SERCA1 activity was measured in PLN-free microsomes (from guinea pig skeletal muscle) before and after reconstitution with the synthetic PLN1–32 inhibitory fragment at a ratio of 300:1 for PLN/SERCA. […] Either an increase in Vmax (rat) or a decrease in KdCa (increased Ca^2+ affinity) (guinea pig) stands for enhancement of SERCA function. […]
(§1) Left ventricles (LV) were dissected from rat and guinea -pig of healthy and failing preparations and frozen until use. Tissues were homogenized, subjected to centrifugation to obtain SR -enriched microsomes and sarcomeric proteins were extracted, as previously described 4.
(§2) In the case of guinea-pig hearts, LV tissues were homogenized in 4 volumes of 10 mM NaHCO3, 1 mM PMSF, 10 μg/ml aprotinin and leupeptin (pH 7) and centrifuged at 12,000g for 15 minutes. Supernatants were filtered and centrifuged at 100,000 g for 30 min. Contractile proteins were extracted by suspending the pellets with 0.6 M KCl, 30 mM histidine, pH 7 and further centrifugation at 100,000 g for 30 min.
(§3) Final pellets were reconstituted with 0.3 M sucrose, 30 mM histidine, pH 7, to obtain SR-enriched […]
SERCA2a ATPase activity was measured as the rate of 32P-ATP release at multiple Ca2+ concentrations (100-2000 nM) in the absence and presence of tested compounds, as previously described5. Increasing concentrations of each compound were pre-incubated with 2 μg of cardiac preparations for 5 min at 4° C in 80 μl of a solution containing 100 mM KCl, 5 mM MgCl2, 1 μM A23187, 20 mM Tris, pH 7.5. Then, 20 μl of 5 mM Tris-ATP containing 50 nCi of 32P-ATP (3-10 Ci/mmol, Perkin Elmer) were added. The ATP hydrolysis was continued for 15 min at 37°C and the reaction was stopped by acidification with 100 μl of 20% ice-cold perchloric acid. 32P was separated by centrifugation with activated charcoal (Norit A, Serva) and the radioactivity was measured. SERCA2a-dependent ATPase activity was identified as the portion of total hydrolytic activity inhibited by cyclopiazonic acid (CPA, 10 µM). Technical replicates were used to ensure the reliability of single values. […]

SERCA2a [2] = target: T2, SERCA2a (Rattus norvegicus, UniProt P11507); experiment: SERCA2a ATPase activity in cardiac homogenates from diabetic (STZ) rats; assay type: biochemical
T2 construct: tissues from healthy and STZ rats were homogenized; from tissue; host or cells: Sprague Dawley rat left ventricle homogenates (healthy or STZ-diabetic)
T2 sequence (P11507 1-997 isoform P11507-2): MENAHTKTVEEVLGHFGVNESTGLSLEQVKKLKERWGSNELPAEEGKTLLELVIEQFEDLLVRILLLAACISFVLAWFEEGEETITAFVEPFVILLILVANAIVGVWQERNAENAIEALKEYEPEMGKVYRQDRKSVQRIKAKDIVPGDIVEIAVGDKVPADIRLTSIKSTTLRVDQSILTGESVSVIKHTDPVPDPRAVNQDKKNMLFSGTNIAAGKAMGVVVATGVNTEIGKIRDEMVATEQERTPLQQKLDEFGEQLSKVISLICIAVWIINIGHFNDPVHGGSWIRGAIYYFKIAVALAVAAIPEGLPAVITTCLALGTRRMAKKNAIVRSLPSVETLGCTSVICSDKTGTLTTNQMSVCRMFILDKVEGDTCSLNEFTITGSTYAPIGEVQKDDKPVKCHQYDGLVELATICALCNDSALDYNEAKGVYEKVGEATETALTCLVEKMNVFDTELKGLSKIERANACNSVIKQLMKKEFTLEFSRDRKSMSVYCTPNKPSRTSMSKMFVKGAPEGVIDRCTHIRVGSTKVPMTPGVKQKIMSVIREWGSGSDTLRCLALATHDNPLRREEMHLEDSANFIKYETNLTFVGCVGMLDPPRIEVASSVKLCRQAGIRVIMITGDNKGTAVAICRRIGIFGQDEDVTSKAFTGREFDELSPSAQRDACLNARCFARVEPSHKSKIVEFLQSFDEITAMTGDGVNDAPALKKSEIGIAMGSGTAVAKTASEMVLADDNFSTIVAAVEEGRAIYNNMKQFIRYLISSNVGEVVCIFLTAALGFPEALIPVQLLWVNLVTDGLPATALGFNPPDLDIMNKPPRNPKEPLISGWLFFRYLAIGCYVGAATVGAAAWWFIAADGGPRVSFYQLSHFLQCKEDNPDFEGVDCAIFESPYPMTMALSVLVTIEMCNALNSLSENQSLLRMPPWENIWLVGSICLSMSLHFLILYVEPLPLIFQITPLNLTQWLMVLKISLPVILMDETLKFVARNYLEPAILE
Experimental: (§4) Measurements were performed in cardiac SR microsomes (guinea pig) and in whole tissue homogenates (rat). Cardiac preparations included SERCA2a and PLN. To test for PLN involvement in the effect of compounds, SERCA1 activity was measured in PLN-free microsomes (from guinea pig skeletal muscle) before and after reconstitution with the synthetic PLN1–32 inhibitory fragment at a ratio of 300:1 for PLN/SERCA. […] Either an increase in Vmax (rat) or a decrease in KdCa (increased Ca^2+ affinity) (guinea pig) stands for enhancement of SERCA function.
(§5) (rats). As verified by Western blot, cardiac microsomes preparations included SERCA2a and PLN and skeletal muscle ones included SERCA1 only.
(§6) SERCA stimulation4, compounds were also tested on SERCA1 in microsomes of guinea-pig skeletal muscle (PLN-free) before and after reconstitution with the PLN1-32 inhibitory fragment at a ratio of 300:1 […]
as §1, §2, §3
In the case of rat hearts, cardiac homogenates were used to have sufficient material to replicate the experiments within a single animal. Hearts were excised from rats eight weeks after STZ injection. LV tissues from healthy and STZ rats were homogenized (1 g in 4 ml buffer) in a medium containing 300 mM sucrose, 50 mM K-phosphate, 10 mM NaF, 0.3 mM PMSF, 0.5 mM DTT, pH 7, and centrifuged at 35,000 g for 30 min. The final pellet was resuspended in the same buffer.
SERCA2a ATPase activity was measured as the rate of 32P-ATP release at multiple Ca2+ concentrations (100-2000 nM) in the absence and presence of tested compounds, as previously described5. Increasing concentrations of each compound were pre-incubated with 2 μg of cardiac preparations for 5 min at 4° C in 80 μl of a solution containing 100 mM KCl, 5 mM MgCl2, 1 μM A23187, 20 mM Tris, pH 7.5. Then, 20 μl of 5 mM Tris-ATP containing 50 nCi of 32P-ATP (3-10 Ci/mmol, Perkin Elmer) were added. […] 32P was separated by centrifugation with activated charcoal (Norit A, Serva) and the radioactivity was measured. […]

[3] = system: SERCA1 reconstituted with PLN1–32 fragment; experiment: SERCA1 ATPase activity after reconstitution with PLN1-32 fragment; assay type: biochemical, guinea pig; details: 30 to 1000 nM
Experimental: Data are the mean ± SEM. *p < 0.05 (one-way RM ANOVA plus post hoc Tukey’s multiple comparisons or paired t-test).
as §4, §5, §6
Tissues were homogenized, subjected to centrifugation to obtain SR -enriched microsomes and sarcomeric proteins were extracted, as previously described 4.
as §2, §3
SERCA2a ATPase activity was measured as the rate of 32P-ATP release at multiple Ca2+ concentrations (100-2000 nM) in the absence and presence of tested compounds, as previously described5. Increasing concentrations of each compound were pre-incubated with 2 μg of cardiac preparations for 5 min at 4° C in 80 μl of a solution containing 100 mM KCl, 5 mM MgCl2, 1 μM A23187, 20 mM Tris, pH 7.5. Then, 20 μl of 5 mM Tris-ATP containing 50 nCi of 32P-ATP (3-10 Ci/mmol, Perkin Elmer) were added. The ATP hydrolysis was continued for 15 min at 37°C and the reaction was stopped by acidification with 100 μl of 20% ice-cold perchloric acid. 32P was separated by centrifugation with activated charcoal (Norit A, Serva) and the radioactivity was measured. SERCA2a-dependent ATPase activity was identified as the portion of total hydrolytic activity inhibited by cyclopiazonic acid (CPA, 10 µM). Technical replicates were used to ensure the reliability of single values.
Reconstitution of SERCA1 with PLN1-32 synthetic fragment
Adult healthy male guinea-pigs were used to prepare SERCA1-enriched SR microsomes from fast-twitch hind leg muscles. Microsomes were prepared as described for SERCA2a preparations. For reconstitution experiments, SERCA1 (PLN-free) was pre-incubated with synthetic PLN1-32 fragment (canine sequence, Biomatik Corporation, Canada) in 20 mM imidazole, pH 7, at 1:300 SERCA1:PLN ratio for 30 min at room temperature. After pre-incubation, SERCA1 (PLN-free) alone, or reconstituted with PLN1-32 […]
fragment, was utilized for SERCA activity measurement by using 32P-ATP hydrolysis method at different

T1 sequence (A0A286XFU8 entry or part of it): as the sequence (P11507 1-997 isoform P11507-2) above, with A219V, I392M, Q396H, V402I, A470V, P535L, S713A, I889V counted along it

| Compound | SERCA2a KdCa reduced by (SERCA2a [1]) | SERCA2a Vmax (SERCA2a [1]) | SERCA2a Stimulation @100 nM (DELTA% KdCa) (SERCA2a [1]; 100 nM) | SERCA2a Vmax increase (SERCA2a [2]; 300 nM) | SERCA2a Vmax increase (SERCA2a [2]; 500 nM) | SERCA1 KdCa after reconstitution with PLN1–32 [3] | SERCA1 Vmax after reconstitution with PLN1–32 [3] |
| --- | --- | --- | --- | --- | --- | --- | --- |
| C[C@]12CC[C@H](CCCC(=O)O)C[C@@H]1[C@@H](O)C[C@@H]1[C@@H]2CC[C@]2(C)C(=O)CC[C@@H]12 [Compound 5] | 16% | without affecting Vmax | -21% | +26% | +25% | dose-dependently reversed the PLN-induced shift in KdCa | unchanged |
| C[C@]12CC[C@H](CC(=O)O)C[C@@H]1[C@@H](O)C[C@@H]1[C@@H]2CC[C@]2(C)C(=O)CC[C@@H]12 [Compound 8] | 14% | without affecting Vmax | – | +17% | +28% | dose-dependently reversed the PLN-induced shift in KdCa | unchanged |
